According to patent US6818662B2, “Pharmaceutical composition” (Taisho Pharmaceutical Co., Ltd., priority 2002, dated 2004):
≈ marks a conversion by molar mass, not a printed value.

Assays:
Format in all cases: physicochemical
[1] = Stability in acidic solution
Description: (§1) The present invention can be disclosed in more detail as follows. Since N-(3-chloro-4-morpholin-4-yl)phenyl-N′-hydroxyimidoformamidine was unstable in an acidic solution, solubilization by forming it into an acidic salt thereof was not proper. Furthermore, the solubility of N-(3-chloro-4-morpholin-4-yl)phenyl-N′-hydroxyimidoformamidine in 5% Tween 80, 10% polyethylene glycol, soybean oil and olive oil, which were used for forming it into micelles, co-solvents and lipid emulsion preparations, was not more than 0.5 mg/mL at 25° C. and was insufficient for forming it into these micelles, co-solvents and lipid emulsion preparations. […] Based on this unpredictable finding in which in the case of the sulfobutyl ether β-cyclodextrin solution, the drug is stable over light exposure and thus, it is convenient for actual use without a special care such as shading, the present invention has been accomplished.

[2] = Solubility in vehicles for micelles, co-solvents and lipid emulsion preparations
Description: as §1

Solubilization test = conditions: 25° C.
Procedure: An excess amount of N-(3-chloro-4-morpholin-4-yl)phenyl-N′-hydroxyimidoformamidine was added to 10% and 20% aqueous solutions of sulfobutyl ether β-cyclodextrin sodium salt (Captisol (trade name); average substitution degree is about 7) and purified water as a control, respectively. After shaking on a water bath adjusted at 25° C. for one day, the solubility of the drug was measured.

## ON=CNc1ccc(N2CCOCC2)c(Cl)c1 [N-(3-chloro-4-morpholin-4-yl)phenyl-N′-hydroxyimidoformamidine]
[1]
  stability in an acidic solution: unstable
[2]; 5% Tween 80, 25° C.
  solubility: not more than 0.5 mg/mL
[2]; 10% polyethylene glycol, 25° C.
  solubility: not more than 0.5 mg/mL
[2]; olive oil, 25° C.
  solubility: not more than 0.5 mg/mL
[2]; soybean oil, 25° C.
  solubility: not more than 0.5 mg/mL
Solubilization test; 10% aqueous solution of sulfobutyl ether β-cyclodextrin sodium salt
  solubility: 3570 µg/mL
Solubilization test; 20% aqueous solution of sulfobutyl ether β-cyclodextrin sodium salt
  solubility: 7670 µg/mL
Solubilization test; purified water (control), shaking one day
  solubility: 80 µg/mL (≈ 313 µM)
